This is an account of results in patent US20140100290A1, “Method of treating a prostate condition” (priority 2012, published 2014).

The experiment concerns PC-3 cells. Description: Phosphatidylserine externalization by fluorescence microscopy (PSVue 480) in PC-3 cells. In kind it is cell-based, Human. To be noted: 10 μM and 1000 μM, 48 hours, dose-dependent. As for the experimental part:
Cell Line and Culture Conditions • Human metastatic, androgen insensitive prostate cancer cells, PC-3, were obtained from ATCC (Manassas, Va., USA). Cells were grown in F-12K medium supplemented with 2 mM glutamine, 10% FBS, 100 U/mL penicillin, and 100 μg/mL streptomycin. PC-3 cells were maintained in a humidified atmosphere of 5% CO2 at 37° C. in T-75 flasks and were subcultured when confluent.
One of the earliest events to occur in apoptosis or programmed cell death is externalization of phosphatidylserine (PS), a membrane phospholipid restricted to the inner leaflet of the lipid bilayer. Redistribution of PS from inner leaflet of plasma membrane lipid bilayer to the outer leaflet occurs in cells undergoing apoptosis. The PSVue™ 480 reagent kit was used to perform the phosphatidylserine (PS) externalization assay. The principle behind this assay involves a strong binding of PSVue™ 480 (fluorescent probe) to the anionic PS residues exposed on the surface of apoptotic cells by its Zn (II)-dipicolylamine (Zn-DPA) functionality, making it a useful apoptotic sensor.
To detect PS externalization, PC-3 cells were seeded at a density of 0.5×10^6 cells/well in flat-bottom, 6-well microtiter plates and were allowed to incubate for 24 h. After 24 h of incubation at 37° C., cells were treated with 10 μM and 1000 μM of carvacrol for 48 h. […]

With `Cc1ccc(C(C)C)cc1O` [Carvacrol], the “externalization of phosphatidylserine residues (PSVue 480 positive cells)” value is listed as “showed externalization of phosphatidylserine residues”.
